Source: patent publication US11851449B2, “Heterocyclic amide compounds having an RORvt inhibitory action” (TAKEDA PHARMACEUTICAL COMPANY LIMITED, priority 2013, dated 2023)
Counter-ions that a name gives are not always drawn. Like-named read-outs stand apart in the source and are kept apart here. One block for each molecule: values may come before it.

How the values were obtained:
RORγt [1] = molecular target: T1, RORγt (Homo sapiens, UniProt P51449); assay: RORγt binding test (TR-FRET, fluorescent-labeled cholesterol); conditions: read-out: binding inhibitory rate (%) of fluorescent-labeled cholesterol to RORγt at test compound 1 μM
T1 sequence (P51449 1-497 isoform P51449-2): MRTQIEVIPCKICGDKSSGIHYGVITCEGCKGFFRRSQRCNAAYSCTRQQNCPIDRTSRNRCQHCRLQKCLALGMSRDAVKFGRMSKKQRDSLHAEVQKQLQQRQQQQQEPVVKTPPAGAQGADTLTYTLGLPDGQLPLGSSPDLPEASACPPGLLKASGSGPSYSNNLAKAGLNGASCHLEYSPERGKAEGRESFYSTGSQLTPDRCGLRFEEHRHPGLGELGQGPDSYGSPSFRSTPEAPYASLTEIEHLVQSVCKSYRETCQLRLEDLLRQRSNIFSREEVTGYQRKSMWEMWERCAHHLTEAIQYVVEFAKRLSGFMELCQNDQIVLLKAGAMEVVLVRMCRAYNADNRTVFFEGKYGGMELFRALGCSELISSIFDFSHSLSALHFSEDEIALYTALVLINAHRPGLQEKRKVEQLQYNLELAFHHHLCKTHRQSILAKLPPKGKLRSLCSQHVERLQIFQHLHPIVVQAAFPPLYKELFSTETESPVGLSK
Method in brief: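 His-tagged RORγt and BODIPY-cholesterol were incubated with compound for 20 min at room temperature in Tris-HCl pH 7.5, 100 mM NaCl, 1 mM DTT and 0.1% BSA. Terbium anti-His antibody was then added for a further 20 min.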

RORγt [2] = molecular target: T1, RORγt; assay: Cofactor recruitment test (Alpha Screen, biotinylated SRC-1 peptide); assay type: biochemical; conditions: read-out: signal value inhibitory rate (%) at test compound 1 μM
Method: Cofactor Recruitment Test
Cofactor recruitment test was performed by Alpha Screen (Histidine Detection Kit, PerkinElmer) method. First, a test compound was diluted with an assay buffer (50 mM Tris-HCl (pH 7.5), 50 mM KCl, 1 mM DTT, 0.1% BSA) and added to a 384 well plate by 5 μL. […] The mixture was stood in a dark place for 1 hr, and the signal value was measured by Envision (PerkinElmer).

RORγt [3] = molecular target: T1, RORγt; assay: Jurkat reporter test (human IL-17 ROR response element luciferase reporter); assay type: cell-based; conditions: read-out: luminescence level inhibitory rate (%) at test compound 3 μM
Method in brief: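 Luminescence (Bright-Glo, 10 min, RT) was measured after overnight compound treatment of electroporated Jurkat cells (1350 V, 10 ms interval, 3 pulses). The reaction medium was RPMI with 10% lipid-reduced FCS, 10 mM HEPES (pH 7.5) and 5 μM lovastatin.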

[4] = test compound 3 μM, Jurkat cells

Structure (SMILES): COc1ccc(C(NC(=O)C2CNC(=O)C2)C(=O)Nc2cc(F)c([Si](C)(C)C)cc2F)cc1 (stereo not drawn) [Example 42, N-(2-((2,5-difluoro-4-(trimethylsilyl)phenyl)amino)-1-(4-methoxyphenyl)-2-oxoethyl)-5-oxopyrrolidine-3-carboxamide]
- inhibition at 1 µM (RORγt [1]): 102%
- inhibition at 1 µM (RORγt [2]): 88.5%
- inhibition at 3 µM (RORγt [3]; Jurkat): 99.1%

Structure (SMILES): COCc1ccc([C@@H](NC(=O)CS(C)(=O)=O)C(=O)Nc2ccc([Si](C)(C)C)c(F)c2)cc1 [Example 81, (2R)—N-(3-fluoro-4-(trimethylsilyl)phenyl)-2-(4-(methoxymethyl)phenyl)-2-(((methylsulfonyl)acetyl)amino)acetamide]
- inhibition at 1 µM (RORγt [1]): 103%
- inhibition at 1 µM (RORγt [2]): 94.9%
- inhibition at 3 µM (RORγt [3]; Jurkat): 98.3%

Structure (SMILES): COCc1ccc([C@@H](NC(=O)Cn2cnccc2=O)C(=O)Nc2ccc([Si](C)(C)C)c(F)c2)cc1 [Example 53, (2R)—N-(3-fluoro-4-(trimethylsilyl)phenyl)-2-(4-(methoxymethyl)phenyl)-2-(((6-oxopyrimidin-1(6H)-yl)acetyl)amino)acetamide]
- inhibition at 1 µM (RORγt [1]): 102%
- inhibition at 1 µM (RORγt [2]): 97.8%
- inhibition at 3 µM (RORγt [3]; Jurkat): 98.4%

Structure (SMILES): COCc1ccc(C(NC(=O)Cn2cnccc2=O)C(=O)Nc2cc(F)c([Si](C)(C)C)cc2F)cc1 (stereo not drawn) [Example 45, N-(2,5-difluoro-4-(trimethylsilyl)phenyl)-2-(4-(methoxymethyl)phenyl)-2-(((6-oxopyrimidin-1(6H)-yl)acetyl)amino)acetamide]
- inhibition at 1 µM (RORγt [1]): 102%
- inhibition at 1 µM (RORγt [2]): 94.1%
- inhibition at 3 µM (RORγt [3]; Jurkat): 101%

- inhibition at 1 µM (RORγt [1]): 102%
- inhibition at 1 µM (RORγt [2]): 2.04%
- inhibition at 3 µM (RORγt [3]; [4]): 95.3%
Structure (SMILES): CC(C)(C)c1ccc(NC(=O)[C@H](NC(=O)[C@@H](O)C(F)(F)F)C2CCOCC2)cc1Cl [Example 10, N-((1R)-2-((4-tert-butyl-3-chlorophenyl)amino)-2-oxo-1-(tetrahydro-2H-pyran-4-yl)ethyl)-3,3,3-trifluoro-2-hydroxypropanamide]

- inhibition at 1 µM (RORγt [1]): 102%
- inhibition at 1 µM (RORγt [2]): 56.9%
- inhibition at 3 µM (RORγt [3]; [4]): 97%
Structure (SMILES): CC(C)(C)c1ccc(NC(=O)[C@H](NC(=O)[C@@H]2CNC(=O)C2)C2CCC(F)(F)CC2)cc1F [Example 7, (3S)—N-((1R)-2-((4-tert-butyl-3-fluorophenyl)amino)-1-(4,4-difluorocyclohexyl)-2-oxoethyl)-5-oxopyrrolidine-3-carboxamide]

Structure (SMILES): COCc1ccc([C@@H](NC(=O)CN2CCOCC2)C(=O)Nc2ccc([Si](C)(C)C)c(F)c2)cc1 [Example 97, (2R)—N-(3-fluoro-4-(trimethylsilyl)phenyl)-2-(4-(methoxymethyl)phenyl)-2-((morpholin-4-ylacetyl)amino)acetamide hydrochloride]
- inhibition at 1 µM (RORγt [1]): 102%
- inhibition at 1 µM (RORγt [2]): 93.6%
- inhibition at 3 µM (RORγt [3]; Jurkat): 98.3%

Structure (SMILES): COCc1ccc([C@@H](NC(=O)C2CC2(F)F)C(=O)Nc2ccc([Si](C)(C)C)c(F)c2)cc1 (stereo partly drawn) [Example 84, 2,2-difluoro-N-((1R)-2-((3-fluoro-4-(trimethylsilyl)phenyl)amino)-1-(4-(methoxymethyl)phenyl)-2-oxoethyl)cyclopropanecarboxamide]
- inhibition at 1 µM (RORγt [1]): 101%
- inhibition at 1 µM (RORγt [2]): 94.4%
- inhibition at 3 µM (RORγt [3]; Jurkat): 100%

Structure (SMILES): COCc1ccc([C@@H](NC(=O)[C@@H]2CNC(=O)C2)C(=O)Nc2cc(F)c([Si](C)(C)C)c(F)c2)cc1 [Example 52, (3S)—N-((1R)-2-((3,5-difluoro-4-(trimethylsilyl)phenyl)amino)-1-(4-(methoxymethyl)phenyl)-2-oxoethyl)-5-oxopyrrolidine-3-carboxamide]
- inhibition at 1 µM (RORγt [1]): 102%
- inhibition at 1 µM (RORγt [2]): 98.7%
- inhibition at 3 µM (RORγt [3]; Jurkat): 100%

Structure (SMILES): COc1ccc([C@@H](NC(=O)[C@H]2CNC(=O)C2)C(=O)Nc2ccc([Si](C)(C)C)c(F)c2)cc1 [Example 70, (3R)—N-((1R)-2-((3-fluoro-4-(trimethylsilyl)phenyl)amino)-1-(4-methoxyphenyl)-2-oxoethyl)-5-oxopyrrolidine-3-carboxamide]
- inhibition at 1 µM (RORγt [1]): 101%
- inhibition at 1 µM (RORγt [2]): 82.8%
- inhibition at 3 µM (RORγt [3]; Jurkat): 96.5%

Structure (SMILES): COCc1ccc([C@@H](NC(=O)CCC(=O)O)C(=O)Nc2cc(F)c([Si](C)(C)C)c(F)c2)cc1 [Example 108, 4-(((1R)-2-((3,5-difluoro-4-(trimethylsilyl)phenyl)amino)-1-(4-(methoxymethyl)phenyl)-2-oxoethyl)amino)-4-oxobutanoic acid]
- inhibition at 1 µM (RORγt [1]): 100%
- inhibition at 1 µM (RORγt [2]): 95.3%
- inhibition at 3 µM (RORγt [3]; Jurkat): 99.7%

Structure (SMILES): COc1ccc(C(C(=O)Nc2ccc([Si](C)(C)C)c(Cl)c2)N(C)C(=O)c2cc(O)no2)cc1 (stereo not drawn) [Example 48, N-(2-((3-chloro-4-(trimethylsilyl)phenyl)amino)-1-(4-methoxyphenyl)-2-oxoethyl)-3-hydroxy-N-methyl-1,2-oxazole-5-carboxamide]
- inhibition at 1 µM (RORγt [1]): 103%
- inhibition at 1 µM (RORγt [2]): 73%
- inhibition at 3 µM (RORγt [3]; Jurkat): 95.7%

- inhibition at 1 µM (RORγt [1]): 101%
- inhibition at 1 µM (RORγt [2]): 74.9%
- inhibition at 3 µM (RORγt [3]; [4]): 96.1%
Structure (SMILES): COCc1ccc(C(NC(=O)[C@@H]2CNC(=O)C2)C(=O)Nc2ccc(C(C)(C)C)c(Cl)c2)cc1 (stereo partly drawn) [Example 104, (3S)—N-(2-((4-tert-butyl-3-chlorophenyl)amino)-1-(4-(methoxymethyl)phenyl)-2-oxoethyl)-5-oxopyrrolidine-3-carboxamide]

Structure (SMILES): COCc1ccc([C@@H](NC(=O)N2CC[C@H](F)C2)C(=O)Nc2ccc([Si](C)(C)C)c(F)c2)cc1 [Example 96, (3S)-3-fluoro-N-((1R)-2-((3-fluoro-4-(trimethylsilyl)phenyl)amino)-1-(4-(methoxymethyl)phenyl)-2-oxoethyl)pyrrolidine-1-carboxamide]
- inhibition at 1 µM (RORγt [1]): 98.6%
- inhibition at 1 µM (RORγt [2]): 91.2%
- inhibition at 3 µM (RORγt [3]; Jurkat): 99.5%

Structure (SMILES): COCc1ccc([C@@H](NC(=O)N2CC[C@@H](O)C2)C(=O)Nc2ccc([Si](C)(C)C)c(F)c2)cc1 [Example 66, (3R)—N-((1R)-2-((3-fluoro-4-(trimethylsilyl)phenyl)amino)-1-(4-(methoxymethyl)phenyl)-2-oxoethyl)-3-hydroxypyrrolidine-1-carboxamide]
- inhibition at 1 µM (RORγt [1]): 103%
- inhibition at 1 µM (RORγt [2]): 94.6%
- inhibition at 3 µM (RORγt [3]; Jurkat): 98.5%

Structure (SMILES): COc1ccc(C(C(=O)Nc2ccc([Si](C)(C)C)c(F)c2)N(C)C(=O)c2cc(O)no2)cc1 (stereo not drawn) [Example 15, N-(2-((3-fluoro-4-(trimethylsilyl)phenyl)amino)-1-(4-methoxyphenyl)-2-oxoethyl)-3-hydroxy-N-methyl-1,2-oxazole-5-carboxamide]
- inhibition at 1 µM (RORγt [1]): 109%
- inhibition at 1 µM (RORγt [2]): 91.6%
- inhibition at 3 µM (RORγt [3]; Jurkat): 99.4%

Structure (SMILES): COCc1ccc(C(C(=O)Nc2cc(F)c([Si](C)(C)C)cc2F)N(C)C(=O)c2cc(O)no2)cc1 (stereo not drawn) [Example 43, N-(2-((2,5-difluoro-4-(trimethylsilyl)phenyl)amino)-1-(4-(methoxymethyl)phenyl)-2-oxoethyl)-3-hydroxy-N-methyl-1,2-oxazole-5-carboxamide]
- inhibition at 1 µM (RORγt [1]): 102%
- inhibition at 1 µM (RORγt [2]): 96.1%
- inhibition at 3 µM (RORγt [3]; Jurkat): 100%

Structure (SMILES): COCc1ccc([C@@H](NC(=O)Cc2nnc(C)o2)C(=O)Nc2cc(F)c([Si](C)(C)C)cc2F)cc1 [Example 56, (2R)—N-(2,5-difluoro-4-(trimethylsilyl)phenyl)-2-(4-(methoxymethyl)phenyl)-2-(((5-methyl-1,3,4-oxadiazol-2-yl)acetyl)amino)acetamide]
- inhibition at 1 µM (RORγt [1]): 102%
- inhibition at 1 µM (RORγt [2]): 97.7%
- inhibition at 3 µM (RORγt [3]; Jurkat): 100%

- inhibition at 1 µM (RORγt [1]): 102%
- inhibition at 1 µM (RORγt [2]): 71.6%
- inhibition at 3 µM (RORγt [3]; [4]): 97.3%
Structure (SMILES): COCc1ccc([C@@H](NC(=O)C2CNC(=O)C2)C(=O)Nc2ccc(CC(C)(C)C)c(F)c2)cc1 (stereo in doubt) [Example 115, (3S)-N-((1R)-2-((4-(2,2-dimethylpropyl)-3-fluorophenyl)amino)-1-(4-(methoxymethyl)phenyl)-2-oxoethyl)-5-oxopyrrolidine-3-carboxamide]

Structure (SMILES): COCc1ccc(C(C(=O)Nc2ccc([Si](C)(C)C)c(F)c2)N(C)C(=O)c2cc(O)no2)cc1 (stereo not drawn) [Example 31, N-(2-((3-fluoro-4-(trimethylsilyl)phenyl)amino)-1-(4-(methoxymethyl)phenyl)-2-oxoethyl)-3-hydroxy-N-methyl-1,2-oxazole-5-carboxamide]
- inhibition at 1 µM (RORγt [1]): 99.5%
- inhibition at 1 µM (RORγt [2]): 98.3%
- inhibition at 3 µM (RORγt [3]; Jurkat): 99.5%

Structure (SMILES): COCc1ccc(C(NC(=O)Cc2cc(O)no2)C(=O)Nc2cc(F)c([Si](C)(C)C)c(F)c2)cc1 (stereo not drawn) [Example 39, N-(3,5-difluoro-4-(trimethylsilyl)phenyl)-2-(((3-hydroxy-1,2-oxazol-5-yl)acetyl)amino)-2-(4-(methoxymethyl)phenyl)acetamide]
- inhibition at 1 µM (RORγt [1]): 103%
- inhibition at 1 µM (RORγt [2]): 99.6%
- inhibition at 3 µM (RORγt [3]; Jurkat): 100%
